Laboratory results taken from ChEMBL document CHEMBL2086254, “Synthesis and identification of novel indolo[2,3-a]pyrimido[5,4-c]carbazoles as a new class of anti-cancer agents” (Eur J Med Chem, 2012).
Calls of active or inactive are those of the source. No cut-off for these calls is given here.

Columns and labels:
[1] = test system: COLO 205; test: Cytotoxicity against human COLO205 cells assessed as cell growth at 10 uM after 48 hrs by SRB assay relative to control; assay type: functional; conditions: COLO 205, 48 h, read-out: Activity
[2] = test system: SNB-19; test: Cytotoxicity against human SNB19 cells assessed as cell growth at 10 uM after 48 hrs by SRB assay relative to control; assay type: functional; conditions: SNB-19, 48 h, read-out: Activity
[3] = test system: HL-60; test: Cytotoxicity against human HL60 cells assessed as cell growth at 10 uM after 48 hrs by SRB assay relative to control; assay type: functional; conditions: HL-60, 48 h, read-out: Activity
[4] = test system: 786-0; test: Cytotoxicity against human 786-0 cells assessed as cell growth at 10 uM after 48 hrs by SRB assay relative to control; assay type: functional; conditions: 786-0, 48 h, read-out: Activity
[5] = test system: RPMI-8226; test: Cytotoxicity against human RPMI8226 cells assessed as cell growth at 10 uM after 48 hrs by SRB assay relative to control; assay type: functional; conditions: RPMI-8226, 48 h, read-out: Activity
[6] = test system: MOLT-4; test: Cytotoxicity against human MOLT4 cells assessed as cell growth at 10 uM after 48 hrs by SRB assay relative to control; assay type: functional; conditions: MOLT-4, 48 h, read-out: Activity
[7] = test system: TK-10; test: Cytotoxicity against human TK10 cells assessed as cell growth at 10 uM after 48 hrs by SRB assay relative to control; assay type: functional; conditions: TK-10, 48 h, read-out: Activity
[8] = test system: PC-3; test: Cytotoxicity against human PC3 cells assessed as cell growth at 10 uM after 48 hrs by SRB assay relative to control; assay type: functional; conditions: PC-3, 48 h, read-out: Activity
[9] = test system: SN12C; test: Cytotoxicity against human SN12C cells assessed as cell growth at 10 uM after 48 hrs by SRB assay relative to control; assay type: functional; conditions: read-out: Activity
[10] = test system: OVCAR-4; test: Cytotoxicity against human OVCAR4 cells assessed as cell growth at 10 uM after 48 hrs by SRB assay relative to control; assay type: functional; conditions: OVCAR-4, 48 h, read-out: Activity
[11] = test system: MDA-MB-231; test: Cytotoxicity against human MDA-MB-231 cells assessed as cell growth at 10 uM after 48 hrs by SRB assay relative to control; assay type: functional; conditions: MDA-MB-231, 48 h, read-out: Activity
[12] = test system: NCI-H322M; test: Cytotoxicity against human NCI-H322M cells assessed as cell growth at 10 uM after 48 hrs by SRB assay relative to control; assay type: functional; conditions: read-out: Activity
[13] = test system: DU-145; test: Cytotoxicity against human DU145 cells assessed as cell growth at 10 uM after 48 hrs by SRB assay relative to control; assay type: functional; conditions: DU-145, 48 h, read-out: Activity
[14] = test system: HT-29; test: Cytotoxicity against human HT-29 cells assessed as cell growth at 10 uM after 48 hrs by SRB assay relative to control; assay type: functional; conditions: HT-29, 48 h, read-out: Activity
[15] = test system: U-251; test: Cytotoxicity against human U251 cells assessed as cell growth at 10 uM after 48 hrs by SRB assay relative to control; assay type: functional; conditions: U-251, 48 h, read-out: Activity
[16] = test system: HOP-62; test: Cytotoxicity against human HOP62 cells assessed as cell growth at 10 uM after 48 hrs by SRB assay relative to control; assay type: functional; conditions: HOP-62, 48 h, read-out: Activity
[17] = test system: SF-268; test: Cytotoxicity against human SF268 cells assessed as cell growth at 10 uM after 48 hrs by SRB assay relative to control; assay type: functional; conditions: SF-268, 48 h, read-out: Activity
[18] = test system: OVCAR-5; test: Cytotoxicity against human OVCAR5 cells assessed as cell growth at 10 uM after 48 hrs by SRB assay relative to control; assay type: functional; conditions: OVCAR-5, 48 h, read-out: Activity
[19] = test system: SR; test: Cytotoxicity against human SR cells assessed as cell growth at 10 uM after 48 hrs by SRB assay relative to control; assay type: functional; conditions: read-out: Activity
[20] = test system: CAKI-1; test: Cytotoxicity against human Caki1 cells assessed as cell growth at 10 uM after 48 hrs by SRB assay relative to control; assay type: functional; conditions: CAKI-1, 48 h, read-out: Activity
[21] = test system: EKVX; test: Cytotoxicity against human EKVX cells assessed as cell growth at 10 uM after 48 hrs by SRB assay relative to control; assay type: functional; conditions: read-out: Activity
[22] = molecular target: DNA topoisomerase 2-alpha (Homo sapiens) (UniProt P11388); test: Inhibition of human DNA topoisomerase 2 at 100 uM after 1 hr by agarose gel circular DNA decatenation assay
[23] = test system: CCRF-CEM; test: Cytotoxicity against human CCRF-CEM cells assessed as cell growth at 10 uM after 48 hrs by SRB assay relative to control; assay type: functional; conditions: read-out: Activity
[24] = test system: MDA-MB-468; test: Cytotoxicity against human MDA-MB-468 cells assessed as cell growth at 10 uM after 48 hrs by SRB assay relative to control; assay type: functional; conditions: MDA-MB-468, 48 h, read-out: Activity
[25] = test system: OVCAR-8; test: Cytotoxicity against human OVCAR8 cells assessed as cell growth at 10 uM after 48 hrs by SRB assay relative to control; assay type: functional; conditions: OVCAR-8, 48 h, read-out: Activity

Chain of DNA topoisomerase 2-alpha (Homo sapiens) (P11388 whole entry): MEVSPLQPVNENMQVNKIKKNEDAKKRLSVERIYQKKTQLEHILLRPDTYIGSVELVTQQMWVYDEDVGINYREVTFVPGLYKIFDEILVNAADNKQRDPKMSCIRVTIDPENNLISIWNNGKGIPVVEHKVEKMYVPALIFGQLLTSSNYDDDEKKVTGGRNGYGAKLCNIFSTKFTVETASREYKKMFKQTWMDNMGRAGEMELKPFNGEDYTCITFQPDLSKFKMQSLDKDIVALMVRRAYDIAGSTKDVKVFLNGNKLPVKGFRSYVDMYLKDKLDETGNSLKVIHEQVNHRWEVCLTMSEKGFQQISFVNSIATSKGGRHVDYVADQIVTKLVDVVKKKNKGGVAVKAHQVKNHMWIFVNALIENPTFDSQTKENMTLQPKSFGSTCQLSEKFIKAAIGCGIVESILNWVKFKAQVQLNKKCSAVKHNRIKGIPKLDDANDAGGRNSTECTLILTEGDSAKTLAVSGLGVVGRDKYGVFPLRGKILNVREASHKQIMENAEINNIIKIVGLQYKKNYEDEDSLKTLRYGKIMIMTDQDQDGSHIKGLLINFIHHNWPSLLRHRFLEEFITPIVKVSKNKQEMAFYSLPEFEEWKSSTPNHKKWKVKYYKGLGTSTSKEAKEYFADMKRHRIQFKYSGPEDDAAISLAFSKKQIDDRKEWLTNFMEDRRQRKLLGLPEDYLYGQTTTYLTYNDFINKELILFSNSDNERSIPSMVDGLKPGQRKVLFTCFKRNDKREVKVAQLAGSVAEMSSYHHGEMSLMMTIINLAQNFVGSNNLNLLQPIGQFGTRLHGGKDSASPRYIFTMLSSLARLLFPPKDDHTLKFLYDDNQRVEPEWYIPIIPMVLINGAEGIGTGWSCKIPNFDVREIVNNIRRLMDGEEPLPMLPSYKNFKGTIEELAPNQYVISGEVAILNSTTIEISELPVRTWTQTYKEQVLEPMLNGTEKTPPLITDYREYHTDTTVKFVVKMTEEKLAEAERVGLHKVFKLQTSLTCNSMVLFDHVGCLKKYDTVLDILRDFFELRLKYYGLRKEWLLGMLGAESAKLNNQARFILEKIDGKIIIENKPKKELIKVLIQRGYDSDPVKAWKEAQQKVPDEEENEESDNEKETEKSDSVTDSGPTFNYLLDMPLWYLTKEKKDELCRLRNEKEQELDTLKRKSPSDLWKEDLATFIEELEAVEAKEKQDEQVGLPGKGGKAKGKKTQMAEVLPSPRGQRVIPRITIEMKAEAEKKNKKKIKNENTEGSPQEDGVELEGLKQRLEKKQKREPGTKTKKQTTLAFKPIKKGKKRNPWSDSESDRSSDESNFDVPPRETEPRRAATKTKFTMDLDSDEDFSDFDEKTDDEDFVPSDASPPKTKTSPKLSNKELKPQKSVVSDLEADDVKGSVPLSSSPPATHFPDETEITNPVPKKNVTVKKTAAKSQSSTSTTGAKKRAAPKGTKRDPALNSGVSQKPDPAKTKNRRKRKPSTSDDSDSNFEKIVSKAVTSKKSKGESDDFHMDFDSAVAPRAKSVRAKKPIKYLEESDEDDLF

inhibition [22] | SMILES | growth at 10 µM [1] [%] | growth at 10 µM [2] [%] | growth at 10 µM [3] [%] | growth at 10 µM [4] [%] | growth at 10 µM [5] [%] | growth at 10 µM [6] [%] | growth at 10 µM [7] [%] | growth at 10 µM [8] [%] | growth at 10 µM [9] [%] | growth at 10 µM [10] [%] | growth at 10 µM [13] [%] | growth at 10 µM [15] [%] | growth at 10 µM [16] [%] | growth at 10 µM [17] [%] | growth at 10 µM [20] [%] | growth at 10 µM [21] [%] | growth at 10 µM [23] [%] | growth at 10 µM [24] [%] | growth at 10 µM [25] [%] | also measured
inactive | Cn1cc(-c2[nH]c(=S)[nH]c(=O)c2-c2cn(C)c3ccccc23)c2ccccc21 | 100 | 105 | 104 | 107 | 91 | 103 | 96.3 | 92.1 | 103 | 103 | 110 | 89 | 92.3 | 106 | 82.4 | 75 | 99 | 107 | 102 | growth at 10 µM [11]: 91.7%; growth at 10 µM [12]: 96.5%; growth at 10 µM [14]: 112%; growth at 10 µM [18]: 107%; growth at 10 µM [19]: 93.9%
inactive | Cn1cc(-c2[nH]c(=O)[nH]c(=O)c2-c2cn(C)c3ccccc23)c2ccccc21 | 96.3 | 109 |  | 111 | 98.9 |  | 94.5 | 86.1 | 110 |  | 115 | 113 | 83.3 | 106 | 68.6 | 68.7 | 87.6 | 88.5 | 98.1 | growth at 10 µM [12]: 105%
inactive | Cn1c2ccccc2c2c3c(=O)[nH]c(N)nc3c3c4cccnc4n(C)c3c21 |  | 103 | 72.8 |  | 64.4 | 74.4 | 76.4 | 71 | 91 | 80.1 | 83.2 | 81.2 | 84.1 | 95.6 | 60.1 | 82.2 | 65.3 | 75.1 | 60.1 | growth at 10 µM [11]: 79.4%; growth at 10 µM [14]: 78%; growth at 10 µM [18]: 98.8%; growth at 10 µM [19]: 63.3%
